We go through 119 molecules from a melting point compilation (Tetko et al.).

SMILES strings stand for the structures.

As usually defined, the melting point is the temperature, or range, at which the solid turns liquid.

The molecule `CCCN(C)S(N)(=O)=O` returned a melting point of 32 to 34 °C. Take `CC(C)CCNS(=O)(=O)Cc1ccc(N)cc1`: the melting point was 111 to 113 °C. Molecule `OCCNc1ncccn1` displayed a melting point of 76 to 78 °C. The molecule `O=C(O)c1ccc(N2CCCC2=O)cc1` showed a melting point of 250 to 252 °C. Consider `COC(=O)COc1ccc(O)cc1`, for which the melting point fell in the range of 113 to 115 °C. The molecule `Cc1noc(COc2ccc(O)cc2)n1` showed a melting point of 62 to 64 °C. Take `Cc1cc(C(=O)O)c(C)n1Cc1ccccc1`: the melting point is 196 to 200 °C. In the case of `CN(C)S(=O)(=O)c1cccc(C(=O)NCC(=O)O)c1`, the melting point lay within 172 to 176 °C.

On to `CN(CC(N)=S)C(=O)c1ccccc1`, for which the melting point was in the range of 149 to 151 °C.

With `Cc1ccc2[nH]c3c(c2c1)CC(C)(C)CC3`, the melting point was 114 to 116 °C. `O=C(Nc1cccc(Br)c1)c1ccccc1` yielded a melting point of 136 to 138 °C. Molecule `COc1ccccc1OCC(=O)NN` yielded a melting point of 101 to 103 °C.

Take `N#Cc1cccc(COc2ccc(N)cc2F)c1`: the melting point lay within 69 to 71 °C. For the molecule `CC(CC(=O)O)(CC(=O)O)c1ccccc1`, the melting point was 136 to 138 °C. For `COc1ccc(C=O)cc1OCc1cccnc1`, the melting point was in the range of 84 to 86 °C. For the molecule `O=C(O)C=Cc1cc(Cl)cc(Cl)c1`, the melting point was in the range of 130 to 134 °C. On to `NS(=O)(=O)c1ccc(Cl)c(NC(=O)CCl)c1`, for which the melting point was in the range of 172 to 174 °C. The molecule `COc1cc(-c2ccccc2)ccc1C=O` had a melting point of 91 to 93 °C. In turn, `CC(C)c1ccc(-n2ccnc2S)cc1` showed a melting point of 131 to 135 °C.

As to `CC(C)(C)OC(=O)N[C@@H]1CCCC[C@H]1N` (relative stereo), the melting point lay in the range of 76 to 78 °C. `Cn1c(Cl)c(C=O)c2cc(C=O)ccc21` displayed a melting point of 164 to 166 °C. Molecule `CC1=CC=CC(=C2Nc3ccc(F)cc3N2C(C)C)C1=N` displayed a melting point of 160 to 162 °C. `Cc1ccn(-c2ccc(Cl)nn2)n1` came in with a melting point of 169 to 171 °C.

For the molecule `NC(=NO)c1ccc2c(c1)OCO2`, the melting point lay in the range of 164 to 166 °C. `CCOc1cc(C=CC(=O)O)ccc1OCC(C)C` registered a melting point of 72 to 74 °C. In the case of `CCS(=O)(=O)c1cccc(S(=O)(=O)Cl)c1`, the melting point is 92 to 94 °C.

The molecule `Cc1ncc(Br)n1C` displayed a melting point of 92 to 94 °C. As for `CC(C)n1cc2cc(N)ccc2n1`, the figure is 105 to 107 °C; as for `CC(=O)c1sc(C(C)(C)C)nc1C`, 66 to 68 °C. As to `O=C(O)CNC(=O)c1ccccc1Br`, the melting point lay within 138 to 140 °C. For `Nc1ccc(NC(=O)c2ccc(F)cc2)cc1C(F)(F)F`, the melting point fell in the range of 120 to 122 °C. In turn, `O=C(CS)Nc1ccccn1` displayed a melting point of 93 to 95 °C. In the case of `Cc1cc(C(=O)O)ccc1S(N)(=O)=O`, the melting point is 255 to 257 °C. Molecule `CCS(=O)(=O)c1cccc(C(=O)O)c1` yielded a melting point of 160 to 162 °C. Consider `Cc1noc2ncc(N)cc12`, for which the melting point lay in the range of 179 to 181 °C. `Cc1cccc(Cn2cccc(C(=O)O)c2=O)c1` had a melting point of 189 to 191 °C. As for `CN1CCN(C2=c3ccccc3=Nc3ccc(Cl)cc3N2)CC1`, the melting point lay within 184 to 186 °C.

`O=C(O)Cc1ccc(S(=O)(=O)Cl)s1` displayed a melting point of 85 to 87 °C. `COC(=O)c1cc(S(=O)(=O)Cl)cc(F)c1F` registered a melting point of 56 to 58 °C. As for `NC1=NN(c2ccccc2)CC1`, the figure is 168 to 170 °C; as for `CC(=O)c1c[nH]c(C(=O)C(Cl)(Cl)Cl)c1`, 190 to 192 °C. As to `O=C(CCCl)NCC(=O)c1ccccc1`, the melting point is 120 to 122 °C. `COc1cc(C(=O)O)ccc1OCC(=O)NC(C)C` gave a melting point of 193 to 195 °C. As to `Sc1nc2ccccc2n1C1CCCCC1`, the melting point lay in the range of 178 to 182 °C.

On to `O=C(c1ccc(Cl)c(Cl)c1)N1CCNCC1`, for which the melting point fell in the range of 74 to 76 °C. In the case of `Nc1ccc(NC(=O)NC2CC2)cc1`, the melting point lay within 161 to 163 °C. The molecule `O=C(Nc1nccs1)C1CCCNC1` (centres undefined) registered a melting point of 178 to 180 °C. Regarding `COCCC(=O)Nc1ccc(F)cc1C(=O)O`, the melting point fell in the range of 110 to 112 °C. On to `Sc1ccc(-c2ccccc2)cc1`, for which the melting point was 106 to 108 °C. The molecule `NC(=O)CCn1c(S)nnc1-c1cccs1` yielded a melting point of 219 to 221 °C.

Regarding `O=C1CC(Cc2ccc(C(=O)O)cc2)C(=O)N1` (centres undefined), the melting point fell in the range of 243 to 245 °C. Take `O=Cc1ccc(OCc2cscn2)cc1`: the melting point is 78 to 80 °C. In turn, `CCOC(=O)Cc1nc2cc(C)c(C)cc2[nH]1` came in with a melting point of 169 to 171 °C. Consider `O=C(O)c1cnn(-c2ccccc2)c1Br`, for which the melting point was in the range of 214 to 216 °C.

`CCS(=O)(=O)c1ccc2c(c1)N(CC(=O)O)CC(=O)O2` gave a melting point of 188 to 190 °C. As for `COCCc1ccc(OCCCC(=O)O)cc1`, the figure is 47 to 49 °C. As for `Cc1ccc(C(=O)c2ccc3[nH]c(=O)oc3c2)cc1`, the figure is 206 to 208 °C. `Nc1ccnc2nc(C(F)(F)F)nn12` showed a melting point of 221 to 223 °C. As for `Nc1cccc(CS(=O)(=O)Cc2ccccc2)c1`, the figure is 120 to 122 °C; as for `O=[N+]([O-])c1ccc(OCC(F)(F)F)nc1`, 41 to 43 °C; as for `O=C(O)c1cn(Cc2ccccn2)nn1`, 179 to 181 °C. `O=C(O)c1cc2c(s1)CCOC2`: the melting point was in the range of 148 to 150 °C.

Molecule `NNC(=O)c1ccc(NS(=O)(=O)c2cccc([N+](=O)[O-])c2)cc1` showed a melting point of 80 to 82 °C. `CCOC(=O)c1sc2cccc(F)c2c1CBr`: the melting point was 133 to 135 °C. As for `Cc1n[nH]c2ncc(C=O)cc12`, the figure is 202 to 204 °C. As for `CCN(CC)c1ccc(N)cc1S(=O)(=O)Nc1ccc(OC)cc1`, the figure is 107 to 109 °C; as for `Cc1nc(C)c(CC(=O)O)c(=O)[nH]1`, 229 to 231 °C; as for `CCOC(=O)c1c(-c2ccc(C)s2)csc1N`, 93 to 95 °C. With `N#CCC(=O)c1cc2ccccc2o1`, the melting point lay within 146 to 148 °C.

`CC(C)(C)OC(=O)NCC1(C(=O)O)CCCC1` yielded a melting point of 123 to 125 °C. Molecule `CS(=O)(=O)c1cc(N)cc(C(=O)O)c1` had a melting point of 257 to 259 °C.

Regarding `COc1cc(CCl)ccc1[N+](=O)[O-]`, the melting point fell in the range of 49 to 51 °C. Take `O=C(O)CCCN1C(=O)c2cccc3cccc(c23)C1=O`: the melting point fell in the range of 86 to 88 °C. As for `CS(=O)(=O)c1ccc(OCCCl)cc1`, the figure is 85 to 87 °C; as for `Nc1nc2ccccc2n1C1CCCCC1`, 206 to 208 °C; as for `Cc1[nH]n(-c2ccc(C#N)cc2)c(=N)c1C`, 180 to 182 °C.

For the molecule `Cc1ccc(CNC(N)=O)cc1`, the melting point is 184 to 186 °C. `CS(=O)(=O)Nc1ccc(S(=O)(=O)Cl)cc1F`: the melting point was 164 to 166 °C. Take `Cc1oc(-c2ccco2)nc1CC(=O)O`: the melting point was 176 to 178 °C.

`CCn1nc(C)c(C(=O)O)c1C(F)(F)Cl` yielded a melting point of 111 to 113 °C. As for `Nc1nnc(Cl)c2ccccc12`, the figure is 159 to 161 °C; as for `CCCNS(=O)(=O)c1ccc(/C=C/C(=O)O)cc1`, 235 to 237 °C; as for `O=C(O)c1csc(-c2ccc3c(c2)OCO3)n1`, 222 to 224 °C. With `CN1C(=O)C(C(N)=O)=C(N)C12CCCC2`, the melting point fell in the range of 255 to 257 °C.

For the molecule `CC(C)C(CN)C(=O)O` (centres undefined), the melting point lay within 249 to 251 °C. As for `CCC(=O)Nc1ccc(C(=O)CCl)cc1`, the figure is 104 to 106 °C; as for `CC1(c2ccc(OC(F)F)cc2)NC(=O)NC1=O` (centres undefined), 141 to 143 °C. In turn, `CCCCn1c(N)c(NCC)c(=O)[nH]c1=O` had a melting point of 285 to 286 °C.

For `O=C(c1cc2ccccc2o1)C1CC1`, the melting point was in the range of 63 to 65 °C. Molecule `NC(=O)c1ccccc1OCc1cccc(C(=O)O)c1` registered a melting point of 238 to 240 °C. With `CC(C)c1nc(-c2cccc3ncccc23)n[nH]1`, the melting point fell in the range of 143 to 145 °C. As for `CC(=O)c1cccc([N+](=O)[O-])c1C`, the figure is 49 to 51 °C; as for `Cc1nnc(-c2ccc(C(=O)O)cc2)o1`, 284 to 286 °C. For the molecule `O=C(Nc1sc2c(c1C(=O)O)CCCC2)c1cccnc1`, the melting point was in the range of 239 to 241 °C. For the molecule `CS(=O)(=O)c1cc(C(=O)O)ccc1Cl`, the melting point fell in the range of 216 to 218 °C. The molecule `CC(C)OC(=S)Nc1ccc(C#N)c(Cl)c1` came in with a melting point of 156 to 158 °C. `O=C(CCl)Nc1cc(C(F)(F)F)ccc1N1CCCC1` returned a melting point of 271 to 272 °C. For the molecule `O=C(O)CSCC(=O)Nc1ccc(F)cc1`, the melting point lay within 125 to 127 °C. As for `O=C1NCNC(=O)N1`, the melting point lay in the range of 290 to 292 °C.

`CC(C)(C)C1CCc2c(sc3nc(S)nc(S)c23)C1` (centres undefined) gave a melting point of 301 to 303 °C. In the case of `O=C1c2ccccc2C(=O)N1CCc1ncc[nH]1`, the melting point was 243 to 245 °C. As to `O=C1CCS(=O)CC1`, the melting point lay in the range of 62 to 64 °C. On to `CN(C)S(=O)(=O)c1ccc(NC(=O)CCCl)cc1`, for which the melting point fell in the range of 159 to 161 °C. On to `O=c1oc2cc(O)ccc2c2c1CCC2`, for which the melting point was 214 to 216 °C. As to `NCc1ccnc(-n2cccn2)c1`, the melting point is 44 to 46 °C. In turn, `O=C(O)c1ccc(Cl)c(S(=O)(=O)Nc2ccccc2N2CCOCC2)c1` showed a melting point of 178 to 180 °C.

Take `CC(C)(O)c1ccc2[nH]ccc2c1`: the melting point was 110 to 112 °C.

In the case of `CNc1ccc(C(=O)O)cn1`, the melting point lay in the range of 249 to 251 °C. The molecule `Oc1ccc(-c2noc(C3CCCO3)n2)cc1` (centres undefined) registered a melting point of 96 to 98 °C.

On to `NC(=O)c1ccc(OC(F)F)cc1`, for which the melting point was in the range of 130 to 132 °C.

In the case of `CCCOc1cc2c(cc1OCCC)CCNCC2`, the melting point is 61 to 63 °C. The molecule `O=C(O)C1(O)CCCC1` gave a melting point of 84 to 86 °C. In the case of `OC(CC1CCCCCN1)c1cccs1` (centres undefined), the melting point was in the range of 60 to 62 °C. Turning to `Nc1cccc(C2SCCCS2)c1`, the melting point was in the range of 140 to 142 °C.

With `Cc1ccc(N2CCc3c(N)cccc3C2)nn1`, the melting point lay in the range of 144 to 146 °C. In turn, `O=C(O)c1cnn2cccnc12` returned a melting point of 203 to 205 °C. In turn, `COc1ccc2c(c1)c(C(=O)O)c(C)n2Cc1ccccc1` registered a melting point of 209 to 211 °C. In the case of `CC(C)(C)c1noc(-c2ccccc2C(=O)O)n1`, the melting point lay in the range of 100 to 102 °C. Molecule `Cc1ccc(S(=O)(=O)N(C)Cc2ccc(C(=O)NN)cc2)cc1` registered a melting point of 66 to 68 °C.
